# Measurements reported in patent publication US20240366612A1, “COMPOUNDS AND METHODS FOR MODULATING NUCLEIC ACID SPLICING” (REMIX THERAPEUTICS INC., priority 2021, published 2024).
# Experiments:
# [1] = system: HTT CJ mRNA; assay: Gene panel canonical junction qPCR assay, HTT; assay type: cell-based; conditions: Homo sapiens, larger gene panel, read-out: HTT IC50 (decrease in CJ mRNA levels)
# Experimental: (§1) Compounds described herein were used to modulate RNA transcript abundance in cells. The expression of a target mRNA was measured by detecting the formation of an exon-exon junction in the canonical transcript (CJ). A compound mediated exon-inclusion event was detected by observing an increase in formation of a new junction with an alternative exon (AJ). Real-time qPCR assays were used to detect these splicing switches and interrogate the potency of various compounds towards different target genes. A high-throughput real time quantitative PCR (RT-qPCR) assay was developed to measure these two isoforms of the mRNA (CJ and AJ) for exemplary genes, such as HTT, SMN2, and MYB, together with a control housekeeping gene, GAPDH or GUSB or PPIA, used for normalization. Briefly, the A673 or K562 cell line was treated with various compounds described herein (e.g., compounds of Formula (I)). After treatment, the levels of the HTT, MYB, or SMN2 mRNA targets were determined from each sample of cell lysate by cDNA synthesis followed by qPCR.
# (§2) The A673 cell line was cultured in DMEM with 10% FBS. Cells were diluted with full growth media and plated in a 96-well plate (15,000 cells in 100 ul media per well). The plate was incubated at 37° C. with 5% CO2 for 24 hours to allow cells to adhere. An 11-point 3-fold serial dilution of the compounds was made in DMSO then diluted in media in an intermediate plate. Compounds were transferred from the intermediate plate to the cell plate with the top dose at a final concentration of 10 uM in the well. Final DMSO concentration was kept at or below 0.25%. The cell plate was returned to the incubator at 37° C. with 5% CO2 for an additional 24 hours.
# (§3) The K562 cell line was cultured in IMDM with 10% FBS. For K562, cells were diluted with full growth media and plated in either a 96-well plate (50,000 cells in 50 uL media per well) or a 384-well plate (8,000-40,000 cells in 45 uL media per well). An 11-point 3-fold serial dilution of the compounds were made in DMSO then diluted in media in an intermediate plate. Compound was transferred from the intermediate plate to the cell plate with the top dose at a final concentration of 10 uM in the well. Final DMSO concentration was kept at or below 0.25%. Final volume was 100 uL for 96-well plate and 50 uL for 384-well plate. The cell plate was then placed in an incubator at 37° C. with 5% CO2 for 24 hours.
# (§4) The data analysis was performed by first determining the ΔCt vs the housekeeper gene. This ΔCt was then normalized against the DMSO control (ΔΔCt) and converted to RQ (relative quantification) using the 2^(−ΔΔCt) equation. The RQ were then converted to a percentage response by arbitrarily setting an assay window of 3.5 and 4.0 ΔCt for HTT-CJ and MYB-CJ respectively and an assay window of 9 and 3 ΔCt for HTT-AJ and MYB-AJ in 96 well format (50,000 K562 cells/well and 15,000 A673 cells per well) and an assay window of 3 and 4 ΔCt for HTT-CJ and MYB-CJ respectively and an assay window of 5 and 3 ΔCt for HTT-AJ and MYB-AJ respectively in 384 well format (8,000 K562 cells/well example). […] The percentage response was then fitted to the 4 parametric logistic equation to evaluate the concentration dependence of compound treatment. The increase in AJ mRNA is reported as AC50 (compound concentration having […] in AJ increase) while the decrease in CJ mRNA levels is reported as IC50 (compound concentration having 50% response in CJ decrease).
# (§5) Additional studies were carried out for a larger panel of genes using the protocol provided above. The junction between flanking upstream and downstream exons was used to design canonical junction qPCR assays. At least one of the forward primer, reverse primer or the CY5-labeled 5′ nuclease probe (with 3′ quencher such as ZEN/Iowa Black FQ) was designed to overlap with the exon junction to capture the CJ mRNA transcript. […]
# [2] = system: MYB mRNA; assay: Splicing RT-qPCR assay, MYB canonical (CJ) and alternative (AJ) junction mRNA; assay type: cell-based; conditions: Homo sapiens, A673 or K562 cells, 24 hours treatment; for IC50: decrease in CJ mRNA; for AC50: increase in AJ mRNA
# Experimental: as §1
# (§6) • Cells-to-CT 1-step kit: ThermoFisher A25602, Cells-to-CT lysis reagent: ThermoFisher 4391851C, TaqMan™ Fast Virus 1-Step Master Mix: ThermoFisher 4444436 • GAPDH: VIC-PL, ThermoFisher 4326317E (Assay: Hs99999905_ml)—used for K562/suspension cell lines • GUSB: VIC-PL, ThermoFisher 4326320E (Assay: Hs99999908_ml)—used for K562/suspension cell lines • PPIA: VIC-PL, ThermoFisher 4326316E (Assay: Hs99999904_ml)—used for A673/adherent cell lines
# as §2, §3
# (§7) The cells were then gently washed with 50 uL-100 uL cold PBS before proceeding to addition of lysis buffer. 30 uL-50 μL of room temperature lysis buffer with DNAse I (and optionally RNAsin) was added to each well. Cells were shaken/mixed thoroughly at room temperature for 5-10 minutes for lysis to take place and then 3 uL-5 μL of room temperature stop solution was added and wells were shaken/mixed again. After 2-5 minutes, the cell lysate plate was transferred to ice for RT-qPCR reaction setup. The lysates could also be frozen at −80° C. for later use.
# (§8) In some cases, a direct lysis buffer was used. An appropriate volume of 3×lysis buffer (10 mM Tris, 150 mM NaCl, 1.5%-2.5% Igepal and 0.1-1 U/uL RNAsin, pH 7.4) was directly added to either K562 or A673 cells in media and mixed by pipetting 3 times. The plates were then incubated at room temperature with shaking/rocking for 20-50 minutes to allow for lysis to take place. After this time, the cell lysate plate was transferred to ice to set up for the RT-qPCR reactions. The lysates could also be frozen at −80° C. for later use. […]
# [3] = system: HTT mRNA; assay: Splicing RT-qPCR assay, HTT canonical (CJ) and alternative (AJ) junction mRNA; assay type: cell-based; conditions: Homo sapiens, A673 or K562 cells, 24 hours treatment; for IC50: decrease in CJ mRNA; for AC50: increase in AJ mRNA
# Experimental: as §1, §6, §2, §3, §7, §8
# [4] = system: SMN2 CJ mRNA; assay: Gene panel canonical junction qPCR assay, SMN2; assay type: cell-based; conditions: Homo sapiens, larger gene panel, read-out: SMN2 IC50 (decrease in CJ mRNA levels)
# Experimental: as §1, §2, §3, §4, §5
# [5] = system: MYB CJ mRNA; assay: Gene panel canonical junction qPCR assay, MYB; assay type: cell-based; conditions: Homo sapiens, larger gene panel, read-out: MYB IC50 (decrease in CJ mRNA levels)
# Experimental: as §1, §2, §3, §4, §5
# [6] = system: Target C CJ mRNA; assay: Gene panel canonical junction qPCR assay, Target C; assay type: cell-based; conditions: Homo sapiens, larger gene panel, read-out: Target C IC50 (decrease in CJ mRNA levels)
# Experimental: as §1, §2, §3, §4, §5
# [7] = Cell Titer Glo 2.0 cell viability assay; conditions: human, K562 cells
# Experimental: Compounds described herein were screened for toxicity in K562 (human chronic myelogenous leukemia) cells using a Cell Titer Glo 2.0 assay.
# • Promega CellTiter-Gbo® 2.0 Cell Viability Assay (cat #G9241) • Corning 384-well TC-treated microplates (cat #3570)
# Cells were plated at 500 cells/well (K562 cells) in 45 μL of IMDM supplemented with 10% FBS in a 384-well opaque plate. Wells containing only medium were used as a blank control. Test compounds (e.g., compounds of Formula (I), (II), and (III)) were first serially diluted in DMSO then diluted 1:100 with IMDM+10% FBS. The final concentration of DMSO was 0.1% in each well. The cells were incubated for 72 hours at 37° C. and 5% CO2 before assaying with Cell Titer Glo 2.0 reagent.
# [8] = system: HiBiT-tagged HTT protein in K562 cells; assay: HiBiT protein abundance assay, HTT; assay type: cell-based, human; conditions: HiBiT-modified K562 cells, 24 hours, luminescence
# Experimental: (§9) Compounds described herein were used to screen for effects on quantitative protein abundance using a HiBit assay system (Promega). Quantitative protein abundance was determined by measuring the protein levels of HiBit-tagged protein targets expressed in cell culture via luminescence using the Nano-Glo HiBiT Lytic Detection System, which uses a split complementation assay format to reconstitute NanoBiT enzyme to generate a luminescent signal. A protein abundance assay was developed such that endogenous protein targets could be modified with the HiBiT peptide tag and their abundance could be assessed after compound treatment. Briefly, K562 cell lines containing a HiBiT-modification were treated with various compounds described herein (e.g., compounds of Formulas (I), (II), or (III)). After treatment for 24 hours, the protein abundance of a specific target was determined by measuring luminescence.
# (§10) • Promega Nano-Glo HiBiT Lytic Detection System (cat #N3030) • Corning 384-well TC-treated microplates (cat #3570) • Synthego Engineered Cells Knock-In Clones
# (§11) Cells were maintained in IMDM with 10% FBS. Before the assay, cells were diluted with […] growth media (IMDM+1% FBS media) and were seeded in a 384-well plate at a density of 10000 cells/well (for each cell line listed in Table 5). Each compound was prepared as a 10-point 3-fold serial dilution in DMSO with the top dose at a final concentration of 10 μM in the well. Unmodified K562 cells were added at the previously specified density with DMSO to serve as an assay baseline and positive control (PC) and DMSO only with the respective modified cell lines was added to the negative control (NC) columns. Final DMSO concentration was kept at or below 0.25%. Treated cell plates were placed in an incubator at 37° C. with 5% CO2 for 24 hours. After 24 hours, 25 μL of Complete HiBit Lytic reagent was added to each well at room temperature (e.g. one plate requiring 10 mL Lytic Buffer, 100 μL LgBiT Protein, 200 μL Lytic Substrate), shaken for 5 minutes at 600 RPM, then left to sit for 10 minutes for signal to stabilize before reading on a Spark Cyto plate reader (Tecan) with a 500 ms measurement time.
# (§12) To determine compound effects on protein abundance of each target in Table 5, the percent response for each respective cell line was calculated at each compound concentration as follows:
# (§13) For the normalized response at each concentration, a four-parameter logistical regression was fit to the data and the response was interpolated at the 50% value to determine a concentration for protein abundance at 50% (IC50) the untreated control.
# [9] = system: HiBiT-tagged Target C protein in K562 cells; assay: HiBiT protein abundance assay, Target C; assay type: cell-based, human; conditions: HiBiT-modified K562 cells, 24 hours, luminescence
# Experimental: as §9, §10, §11, §12, §13
# [10] = system: HiBiT-tagged MYB protein in K562 cells; assay: HiBiT protein abundance assay, MYB; assay type: cell-based, human; conditions: HiBiT-modified K562 cells, 24 hours, luminescence
# Experimental: as §9, §10, §11, §12, §13
SMILES,IC50 [1],IC50 [2],AC50 [2],IC50 [3],AC50 [3],IC50 [4],IC50 [5],IC50 [6],GI50 at 72 h [7],IC50 [8],IC50 [9],IC50 [10]
"Cc1cn2cc(-c3cc4ncn([C@H]5CNCC[C@@H]5O)c(=O)c4s3)cc(F)c2n1 (relative stereo) [Compound 281, 6-{8-fluoro-2-methylimidazo[1,2-a]pyridin-6-yl}-3-[(trans)-4-hydroxypiperidin-3-yl]thieno[3,2-d]pyrimidin-4-one]",1000 to 10000 nM,1000 to 10000 nM,1000 to 10000 nM,1000 to 10000 nM,1000 to 10000 nM,1000 to 10000 nM,1000 to 10000 nM,1000 to 10000 nM,,,,
"CN1CCN(c2nc3ncn(-c4ccc5nn(C)cc5c4)c(=O)c3s2)CC1 [Compound 182, 6-(2-methyl-2H-indazol-5-yl)-2-(4-methylpiperazin-1-yl)thiazolo[4,5-d]pyrimidin-7(6H)-one]",1000 to 10000 nM,,,1000 to 10000 nM,1000 to 10000 nM,1000 to 10000 nM,,,,,,
"Cc1cc(-c2cn3c(=O)cc(N4CCN(C)CC4)nc3s2)cc2cn(C)nc12 [Compound 183, 2-(2,7-dimethyl-2H-indazol-5-yl)-7-(4-methylpiperazin-1-yl)-5H-thiazolo[3,2-a]pyrimidin-5-one]",> 10000 nM,> 10000 nM,> 10000 nM,> 10000 nM,> 10000 nM,1000 to 10000 nM,> 10000 nM,> 10000 nM,,,,
Cc1cn2cc(-c3cn4c(=O)cc(N5CCN(C)CC5)nc4s3)cc(F)c2n1 [Compound 184],> 10000 nM,> 10000 nM,1000 to 10000 nM,> 10000 nM,> 10000 nM,1000 to 10000 nM,> 10000 nM,,,,,
Cc1cn2cc(-c3cc4ncn([C@H]5CCNC[C@@H]5O)c(=O)c4s3)cc(F)c2n1 [Compound 280],100 to 1000 nM,100 to 1000 nM,100 to 1000 nM,100 to 1000 nM,100 to 1000 nM,100 to 1000 nM,100 to 1000 nM,100 to 1000 nM,,,,
Cc1c(O)c(-c2nc3c(=O)n(C4CCNCC4)cnc3s2)cc2cn(C)nc12 [Compound 283],,,,,,,,,1000 to 10000 nM,1000 to 10000 nM,1000 to 10000 nM,1000 to 10000 nM
O=c1c2sc(-c3ccc(-c4cn[nH]c4)cc3O)nc2ncn1C1CCNCC1 [Compound 334],,,,,,,,,> 10000 nM,> 10000 nM,> 10000 nM,> 10000 nM
"COc1c(-c2nc3ncn(C4CCNCC4)c(=O)c3s2)cc2cn(C)nc2c1C [Compound 335, 2-(6-methoxy-2,7-dimethylindazol-5-yl)-6-(piperidin-4-yl)-[1,3]thiazolo[4,5-d]pyrimidin-7-one]",,,,,,,,,> 10000 nM,> 10000 nM,> 10000 nM,> 10000 nM
"Cc1c(O)c(-c2nc3ncn(C4CCNCC4)c(=O)c3s2)cc2cn(C)nc12 [Compound 336, 2-(6-hydroxy-2,7-dimethylindazol-5-yl)-6-(piperidin-4-yl)-[1,3]thiazolo[4,5-d]pyrimidin-7-one]",,,,,,,,,1000 to 10000 nM,100 to 1000 nM,100 to 1000 nM,100 to 1000 nM
Cc1cc(-c2cc3ccn(C4CCN(C)CC4)c(=O)c3s2)cc2cn(C)nc12 [Compound 807],100 to 1000 nM,100 to 1000 nM,100 to 1000 nM,100 to 1000 nM,100 to 1000 nM,< 100 nM,100 to 1000 nM,1000 to 10000 nM,1000 to 10000 nM,,,
